US11813277B2, “Methods and agents for modulating inflammation” (The Regents of the University of California, priority 2018, dated 2023)
“Also recorded” adds a separate entry of the source.

Experiments:
CPT-1 = target: T1, CPT-1 (Mus musculus, UniProt P97742); assay: Palmitoyl CoA-driven respiration in permeabilized BMDMs; type: cell-based
T1 construct: endogenous in cells; host or cells: mouse bone marrow-derived macrophages (BMDMs)
T1 sequence (P97742 1-773): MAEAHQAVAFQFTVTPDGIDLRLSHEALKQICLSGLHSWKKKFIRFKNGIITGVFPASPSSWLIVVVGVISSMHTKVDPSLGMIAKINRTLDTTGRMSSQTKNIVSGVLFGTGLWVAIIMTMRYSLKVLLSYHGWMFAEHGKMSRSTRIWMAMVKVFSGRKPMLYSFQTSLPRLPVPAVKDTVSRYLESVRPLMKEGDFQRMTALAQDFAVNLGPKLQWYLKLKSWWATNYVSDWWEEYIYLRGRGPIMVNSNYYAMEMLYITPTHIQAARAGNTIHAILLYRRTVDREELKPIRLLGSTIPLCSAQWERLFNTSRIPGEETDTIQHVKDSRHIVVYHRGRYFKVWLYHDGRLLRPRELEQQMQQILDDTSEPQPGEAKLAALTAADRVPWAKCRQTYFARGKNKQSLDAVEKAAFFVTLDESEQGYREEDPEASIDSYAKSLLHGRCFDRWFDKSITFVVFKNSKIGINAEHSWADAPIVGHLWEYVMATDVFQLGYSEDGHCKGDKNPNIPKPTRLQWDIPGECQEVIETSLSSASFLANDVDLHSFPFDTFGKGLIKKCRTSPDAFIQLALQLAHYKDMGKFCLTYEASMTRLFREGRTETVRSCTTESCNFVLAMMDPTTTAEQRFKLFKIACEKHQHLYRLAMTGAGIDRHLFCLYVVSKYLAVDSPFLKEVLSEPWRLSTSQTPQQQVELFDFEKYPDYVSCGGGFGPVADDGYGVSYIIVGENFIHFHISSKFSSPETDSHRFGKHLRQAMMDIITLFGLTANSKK

[1] = tested on: Relma, Mgl2, Ym1, Fabp4, Arg1 expression; assay: qPCR of IL-4-associated genes in BMDMs; type: cell-based, mouse
Experimental: For all gene expression and flow cytometry experiments described below, day 6 BMDM were plated at 3×10^5 cell/well in 12-well plates. The next day, cells were treated with appropriate compounds (and duration as indicated in figures and below) in DMEM supplemented with 5% FBS, 2 mM L-glutamine, 100 units/mL, 100 μg/mL penicillin/streptomycin, 500 μM of sodium pyruvate and 5% v/v conditioned media containing macrophage colony stimulating factor (M-CSF).
For flow cytometry experiments involving etomoxir (FIG. 1G, FIG. 2A, FIG. 2D, FIG. 3A, FIG. 3B, FIG. 3G, FIG. 3H): BMDMs were mock-treated (media replacement only) or treated with 20 ng/mL of IL-4±3 μM or 200 μM of etomoxir for 48 hr. When measuring expression of M(IL-4)-associated genes in response to etomoxir (FIG. 1H, FIG. 2B), BMDMs were mock-treated or treated with 20 ng/mL of IL4±etomoxir as indicated for 24 hr.
For experiments involving respiratory chain inhibitors: BMDMs were mock-treated (media replacement only) or treated with 20 ng/mL of IL4±1.2 μM oligomycin (Oligo), 200 nM rotenone (Rot), 200 nM antimycin A (AntiA), 100 nM piericidin A (PierA), or 5 μM carboxyatractylate (CAT) for either 24 (FIG. 4G, FIG. 4H, FIG. 6G) or 48 hr (FIG. 4F, FIG. 7D). All inhibitors were given as co-treatments simultaneously with IL-4.
RNA was isolated with TRIzol, then cDNA was synthesized with high-capacity cDNA reverse transcription kit. KAPA SYBR FAST qPCR Master Mix kit and a LightCycler 480 were used for quantitative RT-PCR. Fold change related to the control group was calculated using […] with 36b4 as the reference gene.

[2] = tested on: isolated rat liver mitochondria; assay: ADP- vs FCCP-stimulated respiration in isolated liver mitochondria; type: biochemical; conditions: high etomoxir (100 μM), pyruvate/malate
Experimental: Mouse liver mitochondria were isolated according to standard techniques (Rogers, G. W., Brand, M. D., Petrosyan, S., Ashok, D., Elorza, A. A., Ferrick, D. A., and Murphy, A. N. (2011) High throughput microplate respiratory measurements using minimal quantities of isolated mitochondria. PLoS One. 6, e21746). The liver from a male mouse was minced and rinsed several times in MSHE [70 mM sucrose, 210 mM mannitol, 5 mM HEPES (pH 7.2), and 1 mM EGTA with 0.5% (w/v) fatty acid-free BSA] to remove blood. Tissue was disrupted using a drill-driven Teflon-on-glass Dounce homogenizer (between 2-4 strokes). The homogenate was centrifuged at 800 g for 10 min and the supernatant was filtered through cheesecloth and centrifuged at 8000 g for 10 min. […]
Phosphorylating respiration was measured in isolated liver mitochondria (1.5 μg/well) as previously described (Rogers, G. W., Brand, M. D., Petrosyan, S., Ashok, D., Elorza, A. A., Ferrick, D. A., and Murphy, A. N. (2011) High throughput microplate respiratory measurements using minimal quantities of isolated mitochondria. PLoS One. 6, e21746), and offered 10 mM pyruvate, 1 mM malate, and 4 mM ADP. Uncoupler stimulated respiration was measured after addition of oligomycin (3 ng/mg mitochondrial protein) and FCCP (4 μM). […]

CPT-1a and CPT-1b = conditions: upon enzymatic conversion to etomoxiryl CoA; cited from earlier work

For CCOC(=O)[C@@]1(CCCCCCOc2ccc(Cl)cc2)CO1 [etomoxir], the “sensitivity of respiration to 3 μM etomoxir” value (CPT-1; conditional CPT KO BMDMs) was “largely absent”, the “EC50, FCCP-stimulated palmitoyl CoA-driven respiration” value (CPT-1; permeabilized BMDMs) was “nanomolar” and the “concentration of saturable effect” value (CPT-1; permeabilized BMDMs) was “less than 3 μM”. For the same molecule, the “gene expression of Relma, Mgl2, Ym1, Fabp4, Arg1” value ([1]; 3 μM etomoxir, IL-4, 24 hr) was “no change”, the “Fabp4 and Arg1 expression” value ([1]; 200 μM etomoxir, IL-4, 24 hr) was “no change” and the “Relma, Mgl2, Ym1 expression” value ([1]; 200 μM etomoxir, IL-4, 24 hr) was “blocked the induction; also recorded: significantly decreased”. For the same molecule, the Fabp4 expression ([1]; etomoxir, IL-4) was “unresponsive”, the “respiration driven by ADP versus FCCP” value [2] was “greater inhibitory effect on respiration driven by ADP versus FCCP” and the IC50 (CPT-1a and CPT-1b) was 10 to 700 nM.
